Results: patent US6967096B2, “Thermostable peptidase” (California Institute of Technology, priority 1998, dated 2005)
Entries after “also recorded” stand apart in the source; their conditions may differ. Like-named read-outs stand apart in the source and are kept apart here. Peptide text beside a SMILES is read from it. * marks the point of attachment. Cbz = O=C(OCc1ccccc1)*; Bz = O=C(c1ccccc1)*

Columns and labels:
[1] = tested on: carboxypeptidase activity in crude extract; assay: Effect of DTT and EDTA on carboxypeptidase activity in crude extract; format: biochemical, Pyrococcus furiosus; settings: preliminary studies
[2] = molecular target: T1, PfuCP (Pyrococcus furiosus, UniProt Q8U3L0); format: biochemical
T1 construct: Pure PfuCP fractions (1391 U.mg^1; 11 mg), as determined by SDS-PAGE, were pooled and stored at −80° C; endogenous in cells; host or cells: Pyrococcus furiosus cell paste; enzyme purified in house by column chromatography
T1 sequence (Q8U3L0 1-499): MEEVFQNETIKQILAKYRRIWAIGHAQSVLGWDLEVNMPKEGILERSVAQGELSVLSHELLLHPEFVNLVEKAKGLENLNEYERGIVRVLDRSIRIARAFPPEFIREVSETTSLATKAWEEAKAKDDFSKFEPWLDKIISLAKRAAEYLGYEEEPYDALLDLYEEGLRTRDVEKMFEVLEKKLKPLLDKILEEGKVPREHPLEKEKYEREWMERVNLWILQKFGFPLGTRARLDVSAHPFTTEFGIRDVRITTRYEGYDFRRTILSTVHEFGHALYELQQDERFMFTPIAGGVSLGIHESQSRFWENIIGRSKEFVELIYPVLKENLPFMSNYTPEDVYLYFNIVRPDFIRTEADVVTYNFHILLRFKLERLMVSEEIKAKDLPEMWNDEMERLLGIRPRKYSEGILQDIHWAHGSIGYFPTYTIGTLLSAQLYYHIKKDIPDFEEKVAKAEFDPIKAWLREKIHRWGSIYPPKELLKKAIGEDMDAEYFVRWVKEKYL
Procedure: (§1) Assay of Enzyme Activity: Unless stated otherwise, enzymatic activity was assayed using 4 μl of enzyme sample in a total volume of 100 μl of 0.1 M KMES buffer (pH 6.5), starting with 2 mM ZAR in the presence of 0.4 mM CoCl2. Polypropylene microcentrifuge tubes were used. The enzyme and substrate were mixed quickly at room temperature and then brought to 80° C.; the equilibration time for the reaction mixture to reach 80° C. was considered negligible relative to the time scale of the assay. The reaction mixture was incubated at 80° C. in a water bath (Neslab EX-200 DD) for 10 minutes followed by quenching on ice. Subsequently, 750 μl of cadmium-ninhydrin reagent (21) was added and the samples were incubated for an additional 5 min at 80° C. for color development followed by quenching on ice. The absorbance was read at 500 nm (HP 8452A diode array spectrophotometer) with an unheated assay mixture containing Cd-ninhydrin reagent serving as the blank. Absorbances were compared with an arginine standard curve in order to calculate specific activities. Stock solutions of ZAR and CoCl2 were prepared in 0.1 M KMES buffer (pH 6.5), and when necessary, dilution of enzyme samples was done in 50 mM Tris-Cl buffer (pH 8.0). All pH adjustments were performed at room temperature. The free amine of the liberated arginine reacts with ninhydrin to yield the chromophore, Ruheman's purple (absorbance at 500 nm).

[3] = molecular target: T1, PfuCP; assay: Hydrolysis of synthetic substrates by PfuCP; format: biochemical; settings: for hydrolysis by PfuCP: initial studies and control experiment; for hydrolysis by PfuCP at longer digestion time: digestion time 30 minutes, not detected under standard conditions
Procedure: as §1
One unit of activity is defined as the amount of enzyme required to generate one μmole of arginine from ZAR in one minute at 80° C. Activity assays for other ZAX amino acid substrates (X=A, D, E, F, G, H, I, K, L, M, N, P, R, S, V, W, Y) were performed under otherwise identical assay conditions; appropriate amino acids were used to prepare standard curves. Spontaneous hydrolysis of the synthetic substrates was not observed at these temperatures. Protein concentrations were quantified by the Bradford assay using bovine serum albumin as the standard.

[4] = molecular target: T1, PfuCP; assay: Re-activation by metal ions: divalent metal ion dependence of PfuCP activity; format: biochemical; settings: at 80° C.; linear reciprocal plot; read-out: binding constant (Kd) for Co^2+
Procedure: as §1, with “All pH adjustments were performed at room temperature.” left out, “nm). […]” for “nm).”

In the case of `O[C@H](CS)[C@H](O)CS` (racemic) [DTT, dithiothreitol], the “effect on carboxypeptidase activity in crude extract” value [1] is reported as “completely abolished”, the reversibility of inhibition [2] is reported as “fully reversible” and the “effect on PfuCP activity” value ([2]; 2 mM) is reported as “not observed”.
In the case of `C[C@H](NC(=O)OCc1ccccc1)C(=O)O` [ZA, N-Cbz-Ala], the “hydrolysis by PfuCP” value [3] is reported as “no hydrolysis”.
`[Co+2]` [Co^2+] gave a Kd [4] of 13 ± 3 µM.
For `CC(NC(=O)OCc1ccccc1)C(=O)NC(Cc1cnc[nH]1)C(=O)O` (stereo not drawn) [ZAH], the “hydrolysis by PfuCP at longer digestion time” value [3] was “hydrolyzed; also recorded: observed”.
In the case of `CC(NC(=O)OCc1ccccc1)C(=O)NC(CO)C(=O)O` (stereo not drawn) [ZAS], the “hydrolysis by PfuCP at longer digestion time” value [3] is reported as “hydrolyzed; also recorded: observed”.
For `O=C(O)CN(CCN(CC(=O)O)CC(=O)O)CC(=O)O` [EDTA, ethylenediaminetetraacetic acid], the “effect on carboxypeptidase activity in crude extract” value [1] was “completely abolished”, the “effect on PfuCP activity” value [2] was “not observed” and the reversibility of inhibition [2] was “fully reversible”.
With `NC(N)=NCCC[C@H](NC(=O)CNC(=O)c1ccccc1)C(=O)O` [hippuryl-arginine, N-Benzoyl-Gly-Arg] (Bz-Gly-Arg-OH) the “hydrolysis by PfuCP” value [3] was “active”.
`O=C(O)CNC(=O)c1ccccc1` [hippuric acid, Bz-Gly] was tested, and the “hydrolysis by PfuCP” value [3] was “activity”.
For `O=S(=O)(F)Cc1ccccc1` [PMSF, Phenymethylsulfonyl fluoride], the “effect on PfuCP activity” value ([2]; 1 mM) was “no effect” and the “effect on the enzymatic activity of the polypeptide” value ([2]; concentration not given) was “no effect”.
In the case of `C[C@H](NC(=O)OCc1ccccc1)C(=O)N[C@@H](CC(N)=O)C(=O)O` [ZAN] (Cbz-Ala-Asn-OH), the “hydrolysis by PfuCP at longer digestion time” value [3] is reported as “hydrolyzed; also recorded: observed”.
